Source: ChEMBL document CHEMBL4145506, “Synthesis and biological evaluation of 4,6-diphenyl-2-(1H-pyrrol-1-yl)nicotinonitrile analogues of crolibulin and combretastatin A-4” (Eur J Med Chem, 2018)

Each molecule was assayed on A549 (assay: cells). Conditions: Homo sapiens, A549, 72 h.
Description: Antiproliferative activity against human A549 cells after 72 hrs by MTT assay

SMILES | IC50 [µM]
COc1ccc(-c2cc(-c3ccc(F)cc3)nc(-n3cccc3CN(C)C)c2C#N)c(OC)c1OC | 12.6
CNCc1cccn1-c1nc(-c2ccc(F)cc2F)cc(-c2cc(OC)c(OC)c(OC)c2)c1C#N | 9.54
COc1ccc(-c2cc(-c3ccc(F)cc3)nc(-n3cccc3CN3CCC(C)CC3)c2C#N)c(OC)c1OC | 6.95
COc1cc(-c2cc(-c3ccc(F)cc3F)nc(-n3cccc3CNC(C)C)c2C#N)cc(OC)c1OC | 16
COc1cc(-c2cc(-c3ccc(F)cc3F)nc(-n3cccc3CN3CCN(C)CC3)c2C#N)cc(OC)c1OC | 4.72
COc1cc(-c2cc(-c3ccc(F)cc3F)nc(-n3cccc3CN3CCC(C)CC3)c2C#N)cc(OC)c1OC | 8.07
CCNCc1cccn1-c1nc(-c2ccc(F)cc2)cc(-c2cc(OC)c(OC)c(OC)c2)c1C#N | 16.9

Results, then the molecule that gave them:

IC50 [µM] | SMILES
10.8 | COc1cc(-c2cc(-c3ccc(F)cc3F)nc(-n3cccc3CN3CCCC3)c2C#N)cc(OC)c1OC
11 | COc1cc(-c2cc(-c3ccc(F)cc3)nc(-n3cccc3CN3CCCC3)c2C#N)cc(OC)c1OC

Each molecule was assayed on MKN-45 (assay: cells). Conditions: Homo sapiens, MKN-45, 72 h.
Description: Antiproliferative activity against human MKN45 cells after 72 hrs by MTT assay

SMILES | IC50 [µM]
COc1ccc(-c2cc(-c3ccc(F)cc3)nc(-n3cccc3CN(C)C)c2C#N)c(OC)c1OC | 45.3
CNCc1cccn1-c1nc(-c2ccc(F)cc2F)cc(-c2cc(OC)c(OC)c(OC)c2)c1C#N | 6.29
COc1ccc(-c2cc(-c3ccc(F)cc3)nc(-n3cccc3CN3CCC(C)CC3)c2C#N)c(OC)c1OC | 46.2
COc1cc(-c2cc(-c3ccc(F)cc3F)nc(-n3cccc3CNC(C)C)c2C#N)cc(OC)c1OC | 57.5
COc1cc(-c2cc(-c3ccc(F)cc3F)nc(-n3cccc3CN3CCN(C)CC3)c2C#N)cc(OC)c1OC | 39.8
COc1cc(-c2cc(-c3ccc(F)cc3F)nc(-n3cccc3CN3CCC(C)CC3)c2C#N)cc(OC)c1OC | 5.91
CCNCc1cccn1-c1nc(-c2ccc(F)cc2)cc(-c2cc(OC)c(OC)c(OC)c2)c1C#N | 42.2

Continued, values first:

IC50 [µM] | SMILES
43.1 | COc1cc(-c2cc(-c3ccc(F)cc3F)nc(-n3cccc3CN3CCCC3)c2C#N)cc(OC)c1OC
35.8 | COc1cc(-c2cc(-c3ccc(F)cc3)nc(-n3cccc3CN3CCCC3)c2C#N)cc(OC)c1OC

These molecules were tested on SMMC-7721 (assay: Antiproliferative activity against human SMMC7721 cells after 72 hrs by MTT assay). Conditions: SMMC-7721, 72 h.
Type: functional, cell-based

SMILES | IC50 [µM]
COc1ccc(-c2cc(-c3ccc(F)cc3)nc(-n3cccc3CN(C)C)c2C#N)c(OC)c1OC | 2.36
CNCc1cccn1-c1nc(-c2ccc(F)cc2F)cc(-c2cc(OC)c(OC)c(OC)c2)c1C#N | 33.4
COc1ccc(-c2cc(-c3ccc(F)cc3)nc(-n3cccc3CN3CCC(C)CC3)c2C#N)c(OC)c1OC | 47.4
COc1cc(-c2cc(-c3ccc(F)cc3F)nc(-n3cccc3CNC(C)C)c2C#N)cc(OC)c1OC | 21.9
COc1cc(-c2cc(-c3ccc(F)cc3F)nc(-n3cccc3CN3CCN(C)CC3)c2C#N)cc(OC)c1OC | 33.9
COc1cc(-c2cc(-c3ccc(F)cc3F)nc(-n3cccc3CN3CCC(C)CC3)c2C#N)cc(OC)c1OC | 7.73
CCNCc1cccn1-c1nc(-c2ccc(F)cc2)cc(-c2cc(OC)c(OC)c(OC)c2)c1C#N | 13.1

Continued, values first:

IC50 [µM] | SMILES
18.8 | COc1cc(-c2cc(-c3ccc(F)cc3)nc(-n3cccc3CN3CCOCC3)c2C#N)cc(OC)c1OC
5.87 | COc1cc(-c2cc(-c3ccc(F)cc3)nc(-n3cccc3CN3CCC(C)CC3)c2C#N)cc(OC)c1OC
40.3 | COc1cc(-c2cc(-c3ccc(F)cc3F)nc(-n3cccc3CN3CCCC3)c2C#N)cc(OC)c1OC
36.8 | COc1cc(-c2cc(-c3ccc(F)cc3)nc(-n3cccc3CN3CCCC3)c2C#N)cc(OC)c1OC
4.35 | COc1cc(-c2cc(-c3ccc(F)cc3)nc(-n3cccc3CN3CCN(C)CC3)c2C#N)cc(OC)c1OC

These molecules were tested on HT-29 (assay: cells). Conditions: Homo sapiens, HT-29, 72 h.

SMILES | IC50 [µM]
COc1ccc(-c2cc(-c3ccc(F)cc3)nc(-n3cccc3CN(C)C)c2C#N)c(OC)c1OC | 3.71
CNCc1cccn1-c1nc(-c2ccc(F)cc2F)cc(-c2cc(OC)c(OC)c(OC)c2)c1C#N | 0.95
COc1ccc(-c2cc(-c3ccc(F)cc3)nc(-n3cccc3CN3CCC(C)CC3)c2C#N)c(OC)c1OC | 1.37
COc1cc(-c2cc(-c3ccc(F)cc3F)nc(-n3cccc3CNC(C)C)c2C#N)cc(OC)c1OC | 2.78
COc1cc(-c2cc(-c3ccc(F)cc3F)nc(-n3cccc3CN3CCN(C)CC3)c2C#N)cc(OC)c1OC | 1.77
COc1cc(-c2cc(-c3ccc(F)cc3F)nc(-n3cccc3CN3CCC(C)CC3)c2C#N)cc(OC)c1OC | 8.76
CCNCc1cccn1-c1nc(-c2ccc(F)cc2)cc(-c2cc(OC)c(OC)c(OC)c2)c1C#N | 1.21

More lines, now with the values ahead:

IC50 [µM] | SMILES
5.86 | COc1cc(-c2cc(-c3ccc(F)cc3F)nc(-n3cccc3CN3CCCC3)c2C#N)cc(OC)c1OC
1.2 | COc1cc(-c2cc(-c3ccc(F)cc3)nc(-n3cccc3CN3CCCC3)c2C#N)cc(OC)c1OC

These molecules were tested on NCI-H460 (assay: Antiproliferative activity against human H460 cells after 72 hrs by MTT assay). Conditions: NCI-H460, 72 h.
Type: functional, cell-based

SMILES | IC50 [µM]
COc1ccc(-c2cc(-c3ccc(F)cc3)nc(-n3cccc3CN(C)C)c2C#N)c(OC)c1OC | 5.77
CNCc1cccn1-c1nc(-c2ccc(F)cc2F)cc(-c2cc(OC)c(OC)c(OC)c2)c1C#N | 2.98
COc1ccc(-c2cc(-c3ccc(F)cc3)nc(-n3cccc3CN3CCC(C)CC3)c2C#N)c(OC)c1OC | 3.88
COc1cc(-c2cc(-c3ccc(F)cc3F)nc(-n3cccc3CNC(C)C)c2C#N)cc(OC)c1OC | 4.37
COc1cc(-c2cc(-c3ccc(F)cc3F)nc(-n3cccc3CN3CCN(C)CC3)c2C#N)cc(OC)c1OC | 4.53
COc1cc(-c2cc(-c3ccc(F)cc3F)nc(-n3cccc3CN3CCC(C)CC3)c2C#N)cc(OC)c1OC | 5.3
CCNCc1cccn1-c1nc(-c2ccc(F)cc2)cc(-c2cc(OC)c(OC)c(OC)c2)c1C#N | 1.54

The next lines start with the values.

IC50 [µM] | SMILES
5.56 | COc1cc(-c2cc(-c3ccc(F)cc3)nc(-n3cccc3CN3CCOCC3)c2C#N)cc(OC)c1OC
0.07 | COc1cc(-c2cc(-c3ccc(F)cc3)nc(-n3cccc3CN3CCC(C)CC3)c2C#N)cc(OC)c1OC
4.29 | COc1cc(-c2cc(-c3ccc(F)cc3F)nc(-n3cccc3CN3CCCC3)c2C#N)cc(OC)c1OC
8.31 | COc1cc(-c2cc(-c3ccc(F)cc3)nc(-n3cccc3CN3CCCC3)c2C#N)cc(OC)c1OC
0.05 | COc1cc(-c2cc(-c3ccc(F)cc3)nc(-n3cccc3CN3CCN(C)CC3)c2C#N)cc(OC)c1OC
